# Experimental data from patent US12575567B2, “Fungicidal compositions” (priority 2020, dated 2026).
# Values joined by “and” are separate entries in the source; they are usually repeats but may differ in a detail not shown here. Equal entries are not always repeated. Numbered stars: 1 amine (or outer) side, 2 acyl side, 3 side chain; on linkers, the order of the positions; unused ones are H or OH. Square brackets hold non-standard residues; d marks the D form. Peptide text beside a SMILES is read from it. X1 = CC[C@@H](C)[C@@H](O[*:1])C(=O)[*:2]; NMeVal(β-OH) = CN[C@H](C(=O)O)C(C)(C)O; NMeF = CN[C@@H](Cc1ccccc1)C(=O)O; aIle = CC[C@@H](C)[C@H](N)C(=O)O; NMeV = CN[C@H](C(=O)O)C(C)C
# Columns and labels:
# Botrytis cinerea = test: Liquid culture test in well plates, Botrytis cinerea (Gray Mould), Example 1-1; type: cell-based; conditions: 72 hours; for (A) inhibition: Aureobasidin A alone
# Method: (§1) Mycelia fragments or conidia suspensions of a fungus, prepared either freshly from liquid cultures of the fungus or from cryogenic storage, are directly mixed into nutrient broth. DMSO solutions of the test compound (max. 10 mg/mL) is diluted with 0.025% Tween20 by factor 50 and 10 μL of this solution is pipetted into a microtiter plate (96-well format). […] The test plates are incubated in the dark at 24° C. and 96% relative humidity (rh). The inhibition of fungal growth is determined photometrically and visually after 3-7 days, depending on the pathosystem, and percent antifungal activity relative to the untreated check is calculated.
# Conidia of the fungus from cryogenic storage were directly mixed into nutrient broth (PDB potato dextrose broth). After placing a DMSO solution of the test compositions into a microtiter plate (96-well format), the nutrient broth containing the fungal spores was added.
# Alternaria solani = test: Liquid culture test in well plates, Alternaria solani (Early Blight of Tomato/Potato), Example 1-2; type: cell-based; conditions: 48 hours; for (A) inhibition: Aureobasidin A alone
# Method: as §1, with “The inhibition of fungal growth is determined photometrically and visually after 3-7 days, depending on the pathosystem, and percent antifungal activity relative to the untreated check is calculated.” left out
# Conidia of the fungus from cryogenic storage were directly mixed into nutrient broth (PDB potato dextrose broth). After placing a DMSO solution of the test compositions into a microtiter plate (96-well format) the nutrient broth containing the fungal spores was added.
# [1] = component (B) alone, 0.0031 ppm
# [2] = component (B) alone, 0.0250 ppm
# [3] = component (B) alone, 0.1250 ppm
# [4] = Alternaria solani, component (B) alone
# [5] = component (B) alone, 0.0016 ppm
# [6] = component (B) alone, 0.0125 ppm
compound,measurement,setting,value
"Cn1cc(C(=O)Nc2cccc3c2[C@@H]2CC[C@H]3C2=C(Cl)Cl)c(C(F)F)n1 (racemic) [Benzovindiflupyr, benzovindiflupyr]",(B) inhibition,Botrytis cinerea; [1],26%
same,(B) inhibition,Botrytis cinerea; [2],57%
CC[C@@H](C)[C@@H]1NC(=O)[C@@H]2CCCN2C(=O)[C@H](Cc2ccccc2)N(C)C(=O)[C@H](Cc2ccccc2)NC(=O)[C@H](C(C)C)N(C)C(=O)[C@@H]([C@H](C)CC)OC(=O)[C@H](C(C)(C)O)N(C)C(=O)[C@H](CC(C)C)NC(=O)[C@H](C(C)C)N(C)C1=O [Aureobasidin A] (cyclo(F[NMeF]P[aIle][NMeV]L[NMeVal(β-OH)][X1][NMeV])),(A) inhibition,Alternaria solani; 0.0001 ppm,8% and 2% and 0%
same,(A) inhibition,Alternaria solani; 0.0002 ppm,2% and 0%
same,(A) inhibition,Alternaria solani; 0.0003 ppm,0% and 3%
same,(A) inhibition,Alternaria solani; 0.0006 ppm,9% and 6% and 0%
same,(A) inhibition,Alternaria solani; 0.0012 ppm,0%
same,(A) inhibition,Alternaria solani; 0.0025 ppm,2% and 1% and 0%
same,(A) inhibition,Alternaria solani; 0.005 ppm,12%
same,(A) inhibition,Alternaria solani; 0.0100 ppm,0%
same,(A) inhibition,Alternaria solani; 0.040 ppm,46%
same,(A) inhibition,Botrytis cinerea; 0.0002 ppm,0%
same,(A) inhibition,Botrytis cinerea; 0.0003 ppm,0% and 3%
same,(A) inhibition,Botrytis cinerea; 0.0006 ppm,0%
same,(A) inhibition,Botrytis cinerea; 0.0012 ppm,0% and 7% and 8%
same,(A) inhibition,Botrytis cinerea; 0.0100 ppm,23% and 25% and 24%
same,(A) inhibition,Botrytis cinerea; 0.0200 ppm,38% and 50% and 33%
same,(A) inhibition,Botrytis cinerea; 0.040 ppm,85%
"CO/C=C(/C(=O)OC)c1ccccc1Oc1cc(Oc2ccccc2C#N)ncn1 [Azoxystrobin, azoxystrobin]",(B) inhibition,"Botrytis cinerea; component (B) alone, 0.0313 ppm",31%
same,(B) inhibition,Botrytis cinerea; [3],61%
"COc1ccnc(C(=O)N[C@@H](C)C(=O)O[C@@H](C)C(c2ccc(F)cc2)c2ccc(F)cc2)c1OC(C)=O [Florylpicoxamid, florylpicoxamid]",(B) inhibition,"Botrytis cinerea; component (B) alone, 0.0625 ppm",56%
same,(B) inhibition,Botrytis cinerea; [3],59%
"O=[N+]([O-])c1cc(C(F)(F)F)c(Cl)c([N+](=O)[O-])c1Nc1ncc(C(F)(F)F)cc1Cl [Fluazinam, fluazinam]",inhibition at 0.0003 ppm,"Alternaria solani; Alternaria solani, component (B) alone, 0.0003 ppm",11%
same,inhibition at 0.0025 ppm,"Alternaria solani; Alternaria solani, component (B) alone, 0.0025 ppm",11%
same,inhibition at 0.005 ppm,"Alternaria solani; Alternaria solani, component (B) alone, 0.0050 ppm",11%
same,inhibition at 0.0006 ppm,"Botrytis cinerea; Botrytis cinerea, component (B) alone, 0.0006 ppm",3%
same,inhibition at 0.0012 ppm,"Botrytis cinerea; Botrytis cinerea, component (B) alone, 0.0012 ppm",6%
same,inhibition at 0.0025 ppm,"Botrytis cinerea; Botrytis cinerea, component (B) alone, 0.0025 ppm",8%
same,inhibition at 0.005 ppm,"Botrytis cinerea; Botrytis cinerea, component (B) alone, 0.0050 ppm",6%
same,inhibition at 0.01 ppm,"Botrytis cinerea; Botrytis cinerea, component (B) alone, 0.0100 ppm",8%
"O=C(NCCc1ncc(C(F)(F)F)cc1Cl)c1ccccc1C(F)(F)F [Fluopyram, fluopyram, reference compound]",inhibition at 0.0313 ppm,Alternaria solani; [4],49%
same,inhibition at 0.0625 ppm,"Alternaria solani; Alternaria solani, component (B) alone, 0.0625 ppm",63%
same,inhibition at 0.125 ppm,"Botrytis cinerea; Botrytis cinerea, component (B) alone, 0.1250 ppm",42%
"CC(C)c1ccc(Cl)cc1CN(C(=O)c1c(C(F)F)nn(C)c1F)C1CC1 [Isoflucypram, isoflucypram, reference compound]",(B) inhibition,Alternaria solani; [5],22%
same,(B) inhibition,Botrytis cinerea; [1],37%
"Cc1cccc(-n2nnn(C)c2=O)c1COc1ccn(-c2ccc(Cl)cc2)n1 [Metyltetrapole, metyltetrapole]",(B) inhibition,Alternaria solani; [6],73%
same,(B) inhibition,Botrytis cinerea; [6],43%
same,(B) inhibition,Botrytis cinerea; [2],56%
"CON(C(=O)c1cn(C)nc1C(F)F)C(C)Cc1c(Cl)cc(Cl)cc1Cl (stereo not shown) [Pydiflumetofen, pydiflumetofen, reference compound]",(B) inhibition,"Alternaria solani; component (B) alone, 0.0008 ppm",28%
same,(B) inhibition,Alternaria solani; [1],71%
same,(B) inhibition,Botrytis cinerea; [5],27%
"CON=C(C(=O)OC)c1ccccc1CON=C(C)c1cccc(C(F)(F)F)c1 [Trifloxystrobin, trifloxystrobin, reference compound]",inhibition at […],"Alternaria solani; Alternaria solani, component (B) alone, 0.0078 ppm",44%
same,inhibition at 0.0313 ppm,Alternaria solani; [4],71%
